According to patent US20210322386A1, “METHODS OF DELAYING AND REVERSING ALZHEIMER'S DISEASE PROGRESSION” (Loma Linda University, priority 2018, published 2021):
Entries after “also recorded” stand apart in the source; their conditions may differ. Where two headings read alike, the source gives them in different places.

What was measured:
CYP27A1 enzyme = target: T1, CYP27A1 enzyme (Homo sapiens, UniProt Q02318); details: from Mast et al., Mol. Pharmacol., 2015, cited from earlier work
T1 sequence (Q02318 34-531): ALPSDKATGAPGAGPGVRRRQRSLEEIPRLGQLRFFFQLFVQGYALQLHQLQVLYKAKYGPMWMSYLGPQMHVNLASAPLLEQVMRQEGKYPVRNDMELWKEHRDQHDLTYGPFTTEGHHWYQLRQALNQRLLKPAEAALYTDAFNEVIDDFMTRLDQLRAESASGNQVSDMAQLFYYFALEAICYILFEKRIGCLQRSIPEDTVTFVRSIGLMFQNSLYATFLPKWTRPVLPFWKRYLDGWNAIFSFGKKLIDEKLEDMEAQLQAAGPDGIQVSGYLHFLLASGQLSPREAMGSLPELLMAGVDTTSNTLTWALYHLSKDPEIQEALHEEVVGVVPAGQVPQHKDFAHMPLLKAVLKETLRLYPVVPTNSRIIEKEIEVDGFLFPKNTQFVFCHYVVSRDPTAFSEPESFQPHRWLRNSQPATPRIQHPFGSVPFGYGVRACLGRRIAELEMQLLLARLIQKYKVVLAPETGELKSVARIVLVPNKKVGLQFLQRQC

[1] = system: mice fed a high-cholesterol diet; test: Y-maze test of cognitive function in mice fed a high-cholesterol diet; format: in vivo; details: mice on high-cholesterol diet (standard chow containing 0.5% cholesterol), 8 weeks of treatment, about 0.4 mg anastrozole/animal/day in LabGel
Method: A pilot study was carried out to assess the safety profile and cognitive impact of anastrozole in 12-week old male mice. Mice were fed anastrozole or placebo (vehicle alone) for a period of 8 weeks using a hydrogel as the means of administration (n=6 per group). Because of the poor palatability of anastrozole in its available form, it was administered through a hydration gel especially designed for medication delivery (LabGel-ClearH20 catalog # 71-02-1081; Portland, Me.), LabGel consists of purified water, sucralose, fruit and natural flavoring, hydrocolloids, potassium sorbate, sodium benzoate, and phosphoric acid. […] Mice were monitored for health decline signs, and given an Appearance Score (Normal skin; skin tent on dorsum; hunched posture; eyes sunken in and severe skin tent; and failure to right self) and an Attitude Score (Normal; decreased activity; lethargy; non-responsiveness; and failure to flee when hand present in cage), as described (Bekkevold et al., J Am Assoc Lab Anim Sci, 52: 233-9, 2013).
12-week old male mice on either a normal or high-cholesterol diet were tested on the same day with an interval of 2 hours between the training 15 min) and testing (5 min) phases. Data were analyzed by one-way ANOVA and Bonferroni post-hoc test. […]

12-week old male mice = test: Pilot study of safety profile of anastrozole in mice (Appearance/Attitude Scores, weight gain, postmortem organs); format: in vivo
Method: A pilot study was carried out to assess the safety profile and cognitive impact of anastrozole in 12-week old male mice. Mice were fed anastrozole or placebo (vehicle alone) for a period of 8 weeks using a hydrogel as the means of administration (n=6 per group). Because of the poor palatability of anastrozole in its available form, it was administered through a hydration gel especially designed for medication delivery (LabGel-ClearH20 catalog # 71-02-1081; Portland, Me.), LabGel consists of purified water, sucralose, fruit and natural flavoring, hydrocolloids, potassium sorbate, sodium benzoate, and phosphoric acid. For each 236 mL dose of LabGel, 45 mg of anastrozole powder, 40 μL of red food coloring, and 1 mL of propylene glycol are thoroughly mixed and the resulting anastrozole is distributed into mouse cages at 3 grams LabGel/mouse/day in a custom--made container easily accessible to the mice. The final concentration of anastrozole in the LabGel is 0.1906 mg/mL and it is kept fresh by replacing it every 48 hours. In the experiment, mice consumed about 2 mL/mouse/day of LabGel equating to about 0.4 mg anastrozole/animal/day, which is consistent with the literature (Overk et al., J Neurosci Methods, 195: 194-9, 2011). Mice were monitored for health decline signs, and given an Appearance Score (Normal skin; skin tent on dorsum; hunched posture; eyes sunken in and severe skin tent; and failure to right self) and an Attitude Score (Normal; decreased activity; lethargy; non-responsiveness; and failure to flee when hand present in cage), as described (Bekkevold et al., J Am Assoc Lab Anim Sci, 52: 233-9, 2013).

Compound | inhibition of the CYP27A1 enzyme (CYP27A1 enzyme) | also measured
CC(C)(C#N)c1cc(Cn2cncn2)cc(C(C)(C)C#N)c1 [anastrozole] | Inhibitors of the CYP27A1 enzyme | inhibition of the CYP27A1 enzyme (CYP27A1 enzyme; listed as Anastrozole): shown to inhibit the CYP27A1 enzyme; cognitive function as measured by Y-maze test [1]: protects against cognitive loss; also recorded: ameliorates the negative effect of a high-cholesterol diet on cognitive function; signs of health decline (Appearance Score and Attitude Score) (12-week old male mice; 8 weeks, about 0.4 mg anastrozole/animal/day in LabGel): No signs of health decline; postmortem evaluation of major organs (12-week old male mice; after 8 weeks): no signs of toxicity; weight gain progression vs vehicle group (12-week old male mice; throughout the 8-week study): identical between both groups
Cc1cccc([C@H](C)c2cnc[nH]2)c1C [dexmedetomidine] | Inhibitors of the CYP27A1 enzyme | 
N#Cc1ccc(C2CCCc3cncn32)cc1 (stereo not shown) [fadrozole] | Inhibitors of the CYP27A1 enzyme | 
CC[C@@H]([C@H](C)O)n1ncn(-c2ccc(N3CCN(c4ccc(OC[C@@H]5CO[C@@](Cn6cncn6)(c6ccc(F)cc6F)C5)cc4)CC3)cc2)c1=O [posaconazole] | Inhibitors of the CYP27A1 enzyme | 
C[C@@H](c1nc(-c2ccc(C#N)cc2)cs1)[C@](O)(Cn1cncn1)c1ccc(F)cc1F [ravuconazole] | Inhibitors of the CYP27A1 enzyme | 
